In ChEMBL document CHEMBL4184140, “Expanding the tetrahydroquinoline pharmacophore” (Bioorg Med Chem Lett, 2017):
Activity calls are given as the source filed them. The calls are words filed in the database; no cut-off is given here.

Legend:
[1] = system: MCF7; assay: Antiproliferative activity against human MCF7 cells; format: functional, cell-based
[2] = system: DU-145; assay: Antiproliferative activity against human DU145 cells; format: functional, cell-based
[3] = system: A549; assay: Antiproliferative activity against human A549 cells; format: functional, cell-based
[4] = system: HepG2; assay: Antiproliferative activity against human HepG2 cells; format: functional, cell-based
[5] = system: IMR-32; assay: Cytotoxicity against human IMR32 cells after 48 hrs by SRB assay; format: cell-based; details: IMR-32, 48 h
[6] = system: IMR-32; assay: Neurotrophic activity in human IMR32 cells assessed as appearance of neurites at 1 to 10 uM after 96 hrs by bright field microscopic analysis; format: functional, cell-based
[7] = system: IMR-32; assay: Neurotrophic activity in human IMR32 cells assessed as length of neurite outgrown after 96 hrs by bright field microscopic analysis; format: functional, cell-based
[8] = system: IMR-32; assay: Neurotrophic activity in human IMR32 cells assessed as increase in BDNF mRNA level at 10 uM by RT-PCR analysis; format: functional, cell-based
[9] = system: IMR-32; assay: Neurotrophic activity in human IMR32 cells assessed as increase in NGF mRNA level at 10 uM by RT-PCR analysis; format: functional, cell-based
[10] = system: IMR-32; assay: Neurotrophic activity in human IMR32 cells assessed as increase in BDNF protein level at 10 uM by Western blot method; format: functional, cell-based
[11] = system: IMR-32; assay: Neurotrophic activity in human IMR32 cells assessed as increase in NGF protein level at 10 uM by Western blot method; format: functional, cell-based
[12] = system: IMR-32; assay: Neurotrophic activity in human IMR32 cells assessed as induction of differentiation at 10 uM after 96 hrs by bright filed microscopic method; format: functional, cell-based

Row | Compound | Activity [1] | Activity [2] | Activity [3] | Activity [4] | IC50 [5] | Activity [6] | Activity [7] | Activity [8] | Activity [9] | Activity [10] | Activity [11] | Activity [12]
1 | C=CCO[C@@H]1[C@@H]2c3ccccc3N(C(C)=O)[C@H](c3cccc(Br)c3)[C@@H]2C[C@H]1N=[N+]=[N-] | inactive | inactive | inactive | inactive | > 100 µM | inactive | – | – | – | – | – | –
2 | CC(=O)N1c2ccccc2[C@H]2C=CC[C@H]2[C@H]1c1ccccc1C | inactive | inactive | inactive | inactive | > 100 µM | inactive | – | – | – | – | – | –
3 | CC(=O)N1c2ccccc2[C@H]2C=CC[C@H]2[C@H]1c1ccc(Cl)cc1 | inactive | inactive | inactive | inactive | 94.7 µM | inactive | – | – | – | – | – | –
4 | O[C@@H]1[C@@H]2c3ccc(F)cc3N[C@H](c3ccccc3)[C@@H]2C[C@@H]1O | inactive | inactive | inactive | inactive | > 100 µM | inactive | – | – | – | – | – | –
5 | O=[N+]([O-])c1ccc2c(c1)N[C@H](c1ccccc1)[C@@H]1C[C@H](O)[C@H](O)[C@H]21 | inactive | inactive | inactive | inactive | 57.1 µM | inactive | – | – | – | – | – | –
6 | Brc1ccc2c(c1)[C@H]1C=CC[C@H]1[C@@H](c1ccccc1)N2 | inactive | inactive | inactive | inactive | 94.4 µM | inactive | – | – | – | – | – | –
7 | CC(=O)N1c2cc([N+](=O)[O-])ccc2[C@H]2C=CC[C@H]2[C@H]1c1ccccc1 | inactive | inactive | inactive | inactive | > 100 µM | Active | Dose-dependent effect | Active | Active | Active | Active | –
8 | Cc1ccccc1[C@H]1Nc2ccccc2[C@H]2[C@@H](O)[C@@H](O)C[C@H]21 | inactive | inactive | inactive | inactive | > 100 µM | inactive | – | – | – | – | – | –
9 | CC(=O)N1c2ccccc2[C@@H]2[C@@H](C[C@@H]3O[C@H]23)[C@H]1c1ccccc1 | inactive | inactive | inactive | inactive | > 100 µM | – | Dose-dependent effect | Active | Active | Active | Active | Active
10 | CC(=O)N1c2ccc(Br)cc2[C@H]2C=CC[C@H]2[C@H]1c1ccccc1 | inactive | inactive | inactive | inactive | 89.9 µM | inactive | – | – | – | – | – | –
11 | CC(=O)N1c2ccccc2[C@@H]2[C@@H](C[C@@H]3O[C@H]23)[C@H]1c1ccc(Cl)cc1 | inactive | inactive | inactive | inactive | > 100 µM | inactive | – | – | – | – | – | –
12 | C=CCO[C@@H]1[C@@H]2c3ccccc3N(C(C)=O)[C@H](c3ccc(Cl)cc3)[C@@H]2C[C@H]1N=[N+]=[N-] | inactive | inactive | inactive | inactive | 66.5 µM | inactive | – | – | – | – | – | –
13 | Cc1ccccc1[C@H]1Nc2ccccc2[C@H]2C=CC[C@H]21 | inactive | inactive | inactive | inactive | 87.2 µM | inactive | – | – | – | – | – | –
14 | CC(=O)N1c2ccccc2[C@H]2[C@@H](O)[C@@H](O)C[C@H]2[C@H]1c1ccccc1 | inactive | inactive | inactive | inactive | > 100 µM | inactive | – | – | – | – | – | –
15 | CC(=O)N1c2ccccc2[C@H]2C=CC[C@H]2[C@H]1c1cccc(Br)c1 | inactive | inactive | inactive | inactive | > 100 µM | inactive | – | – | – | – | – | –
16 | C=CCO[C@@H]1[C@@H]2c3ccccc3N(C(C)=O)[C@H](c3ccccc3)[C@@H]2C[C@H]1N=[N+]=[N-] | inactive | inactive | inactive | inactive | 17.4 µM | inactive | – | – | – | – | – | –

Row | Compound | Activity [1] | Activity [2] | Activity [3] | Activity [4] | IC50 [5] | Activity [6] | Activity [7] | Activity [8] | Activity [9] | Activity [10] | Activity [11] | Activity [12]
17 | CC(=O)N1c2cc([N+](=O)[O-])ccc2[C@H]2[C@@H](O)[C@H](N=[N+]=[N-])C[C@H]2[C@H]1c1ccccc1 | inactive | inactive | inactive | inactive | > 100 µM | inactive | – | – | – | – | – | –
18 | CC(=O)N1c2ccccc2[C@H]2C=CC[C@H]2[C@H]1c1ccccc1 | inactive | inactive | inactive | inactive | 61.6 µM | inactive | – | – | – | – | – | –
19 | O[C@@H]1[C@@H]2c3cc(Br)ccc3N[C@H](c3ccccc3)[C@@H]2C[C@@H]1O | inactive | inactive | inactive | inactive | > 100 µM | inactive | – | – | – | – | – | –
20 | Fc1ccc2c(c1)N[C@H](c1ccccc1)[C@@H]1CC=C[C@H]21 | inactive | inactive | inactive | inactive | > 100 µM | inactive | – | – | – | – | – | –
21 | CC(=O)N1c2ccccc2[C@@H]2[C@@H](C[C@@H]3O[C@H]23)[C@H]1c1cccc(Br)c1 | inactive | inactive | inactive | inactive | > 100 µM | inactive | – | – | – | – | – | –
22 | CC(=O)N1c2cc([N+](=O)[O-])ccc2[C@@H]2[C@@H](C[C@@H]3O[C@H]23)[C@H]1c1ccccc1 | inactive | inactive | inactive | inactive | 56 µM | – | – | – | – | – | – | Active
23 | CC(=O)N1c2ccccc2[C@H]2[C@@H](O)[C@H](N=[N+]=[N-])C[C@H]2[C@H]1c1cccc(Br)c1 | inactive | inactive | inactive | inactive | > 100 µM | inactive | – | – | – | – | – | –
24 | O[C@@H]1[C@@H]2c3ccccc3N[C@H](c3ccc(Cl)cc3)[C@@H]2C[C@@H]1O | inactive | inactive | inactive | inactive | 64.6 µM | inactive | – | – | – | – | – | –
25 | O=[N+]([O-])c1ccc2c(c1)N[C@H](c1ccccc1)[C@@H]1CC=C[C@H]21 | inactive | inactive | inactive | inactive | > 100 µM | inactive | – | – | – | – | – | –
26 | Brc1cccc([C@H]2Nc3ccccc3[C@H]3C=CC[C@H]32)c1 | inactive | inactive | inactive | inactive | > 100 µM | inactive | – | – | – | – | – | –
27 | C=CCO[C@H]1C(n2cc(-c3ccccc3)nn2)C[C@@H]2[C@H]1c1ccccc1N(C(C)=O)[C@@H]2c1ccccc1 (single isomer, unassigned) | inactive | inactive | inactive | inactive | 65 µM | inactive | – | – | – | – | – | –
28 | COc1cccc2c1C(=O)c1c(O)c3c(c(O)c1C2=O)C[C@@](O)(C(=O)CO)C[C@@H]3O[C@H]1C[C@H](N)[C@H](O)[C@H](C)O1 [DOXORUBICIN] | – | – | – | – | 8.49 µM | – | – | – | – | – | – | –
29 | CC(=O)N1c2ccccc2[C@H]2[C@@H](O)[C@H](N=[N+]=[N-])C[C@H]2[C@H]1c1ccc(Cl)cc1 | inactive | inactive | inactive | inactive | > 100 µM | inactive | – | – | – | – | – | –
30 | Clc1ccc([C@H]2Nc3ccccc3[C@H]3C=CC[C@H]32)cc1 | inactive | inactive | inactive | inactive | > 100 µM | inactive | – | – | – | – | – | –
31 | O[C@@H]1[C@@H]2c3ccccc3N[C@H](c3ccccc3)[C@@H]2C[C@@H]1O | inactive | inactive | inactive | inactive | > 100 µM | inactive | – | – | – | – | – | –
